Assays:
MDA-MB-231 cells [1] = experiment: In vitro anti-proliferative activity assay (MTT); assay type: cell-based; details: Homo sapiens, 48 h incubation
Experimental: Cells lines were maintained as monolayers in Dulbecco’s Modified Eagle’s Medium (DMEM) supplemented with 10% FBS, 2 mM L-glutamine, 100 U/ml penicillin and 100 µg/ml streptomycin sulfate. Cells were sub-cultured with trypsine/EDTA solution, counted with haemocytometer and plated onto 96-well plates (5000 cells/well) and left overnight to form a semi-confluent monolayer. […] DMSO (100 µl/well) was added to dissolve the formazan crystals with shaking for 10 min after which the absorbance was read at 590 nm against no cell blanks on a FLuo Star Optima microplate reader (BMG Technologies, Germany). Cell proliferation was calculated comparing the OD values of the DMSO control wells and those of the samples represented as % proliferation to the control.
The in vitro anti-proliferative activity of the newly synthesized spirooxindoles 6a–p was examined against TNBC MDA-MB-231 cells. This assay was performed utilizing the 3–(4,5-dimethylthiazol-2-yl)-2,5-diphenyltetrazolium bromide (MTT) colorimetric assay as described by Mosmann[18]. Adriamycin was included in this assay as a reference drug.

WI-38 cells = experiment: In vitro cytotoxic activity, WI-38 cells (MTT); assay type: cell-based, human; details: Homo sapiens, WI-38, read-out: IC50 (µM) WI-38
Experimental: WI-38 cells ([…]), were obtained from American Type Culture Collection. The cells were propagated in DMEM supplemented with 10% heat-inactivated FBS (Hyclone), 10 μg/ml of insulin (Sigma), and 1% penicillin-streptomycin. All of the other chemicals and reagents were from Sigma, or Invitrogen. Cytotoxicity was determined using MTT assay following a reported procedure.

caspase-3 = experiment: Active caspase-3 level in MDA-MB-231 cells (ELISA); assay type: cell-based; details: MDA-MB-231 cells treated with compound at its IC50 concentration
Experimental: (§1) The levels of the apoptotic markers (Bax, caspase-3) as well as the anti-apoptotic marker (Bcl-2) were assessed using ELISA colorimetric kits per the manufacturer’s protocol and referring to reported instructions[21]^,[22].
Caspases, a family of cysteineaspartic proteases, are the crucial apoptosis mediators that provide essential links in cell regulatory networks controlling cell death. Caspase-3 is the key executioner caspase which modifies proteins ultimately responsible for apoptosis.

Bax = Bax level in MDA-MB-231 cells (ELISA); assay type: cell-based; details: MDA-MB-231 cells treated with compound at its IC50 concentration
Experimental: as §1
(§2) Bcl-2 family comprises a group of crucial regulatory factors in apoptosis that finely tune the apoptotic switch on/off mechanism. Based on their functional and structural criteria, the members are divided into two major classes; group I proteins that are anti-apoptotic and group II proteins that are apoptotic. Group I anti-apoptotic proteins exert their function by inhibiting group II apoptotic proteins through simply binding to them. Group I proteins bind selectively to the active conformations of group II proteins to prevent them from being inserted into the mitochondria and thus cease the release of pro-apoptotic factors such as cytochrome c, ultimately aborting apoptosis. Thus, the inhibition of group I proteins and/or the activation of group II proteins can successfully induce apoptosis.

Bcl-2 = Bcl-2 level in MDA-MB-231 cells (ELISA); assay type: cell-based; details: MDA-MB-231 cells treated with compound at its IC50 concentration
Experimental: as §1, §2

MDA-MB-231 cells [2] = experiment: Annexin V-FITC apoptosis assay; assay type: cell-based; details: MDA-MB-231, 24 h
Experimental: Phosphatidylserine externalization was measured using Annexin V-FITC/PI apoptosis detection kit (BD Biosciences, San Jose, CA) according to the manufacturer's instructions, as reported earlier. MDA-MB-231cells were treated with 6e at defined concentrations for 24 h.
Externalization of the phospholipid phosphatidylserine at the cell membrane is a one of the well-recognized hallmarks of cells going into apoptosis[17]^,[29].

EGFR = biological target: T1, EGFR (Homo sapiens, UniProt P00533); experiment: EGFR kinase ELISA assay; assay type: biochemical; details: colorimetric ELISA, mean ± SD of three separate experiments
T1 construct: purchased BPS Biosciences 40321
T1 sequence (P00533 25-1210): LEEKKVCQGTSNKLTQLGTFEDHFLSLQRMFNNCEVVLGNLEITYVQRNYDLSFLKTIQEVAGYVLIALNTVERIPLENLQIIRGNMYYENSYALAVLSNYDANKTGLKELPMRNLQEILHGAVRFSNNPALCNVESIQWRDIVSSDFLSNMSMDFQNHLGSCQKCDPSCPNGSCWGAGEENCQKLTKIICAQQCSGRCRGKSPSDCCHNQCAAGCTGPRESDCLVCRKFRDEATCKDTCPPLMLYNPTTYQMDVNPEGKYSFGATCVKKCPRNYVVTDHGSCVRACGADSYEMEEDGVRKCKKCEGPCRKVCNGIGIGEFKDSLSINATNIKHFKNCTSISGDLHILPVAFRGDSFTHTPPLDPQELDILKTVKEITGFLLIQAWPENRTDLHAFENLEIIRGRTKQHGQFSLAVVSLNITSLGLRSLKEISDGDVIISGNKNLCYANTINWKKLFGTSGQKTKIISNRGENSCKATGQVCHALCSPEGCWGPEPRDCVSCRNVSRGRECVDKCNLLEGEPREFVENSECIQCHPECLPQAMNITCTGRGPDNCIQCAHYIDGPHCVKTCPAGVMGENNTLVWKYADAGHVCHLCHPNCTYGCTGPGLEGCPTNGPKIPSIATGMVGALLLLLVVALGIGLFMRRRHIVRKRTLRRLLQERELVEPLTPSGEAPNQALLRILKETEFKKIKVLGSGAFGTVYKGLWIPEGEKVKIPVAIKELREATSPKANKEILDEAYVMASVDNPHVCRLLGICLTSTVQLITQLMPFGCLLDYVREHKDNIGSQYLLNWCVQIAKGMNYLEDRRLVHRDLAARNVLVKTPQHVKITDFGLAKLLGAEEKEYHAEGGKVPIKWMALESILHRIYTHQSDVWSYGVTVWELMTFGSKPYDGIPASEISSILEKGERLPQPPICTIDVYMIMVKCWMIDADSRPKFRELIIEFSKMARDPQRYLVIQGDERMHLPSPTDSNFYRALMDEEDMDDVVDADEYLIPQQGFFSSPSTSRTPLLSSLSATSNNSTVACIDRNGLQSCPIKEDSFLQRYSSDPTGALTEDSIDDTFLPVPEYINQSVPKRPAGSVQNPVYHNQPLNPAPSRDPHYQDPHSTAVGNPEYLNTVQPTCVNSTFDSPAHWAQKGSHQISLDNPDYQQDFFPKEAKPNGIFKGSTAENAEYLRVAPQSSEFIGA
Experimental: Percent inhibition was calculated by the comparison of compounds treated to control incubations.
Erlotinib, a clinically used EGFR inhibitor, was taken as the reference drug.

MDA-MB-231 cells [3] = experiment: Cell cycle analysis (DNA flow cytometry)
Experimental: Then cells were washed twice with ice-cold phosphate buffered saline (PBS). Subsequently, the treated cells were collected by centrifugation, fixed in ice-cold 70% (v/v) ethanol, washed with PBS, re-suspended with 0.1 mg/mL RNase, stained with 40 mg/mL PI, and analyzed by flow cytometry using FACS Calibur (Becton Dickinson, BD, USA). The cell cycle distributions were calculated using CellQuest software (Becton Dickinson).

tsFT210 cells = system: tsFT210 cells; set-up: method as in ref 7 = [7]; 7 Cui C-B , Kakeya H , Osada H. Novel mammalian cell cycle inhibitors, spirotryprostatins A and B, produced by Aspergillus fumigatus , which inhibit mammalian cell cycle at G2/M phase . Tetrahedron 19; details: read-out: IC50, inhibition of cell cycle progression at G2/M phase; cited from earlier work
MDA cell lines = system: MDA cell lines; set-up: method as in ref 10 = [10]; 10 Jiang X , Sun Y , Yao J , et al Core scaffold‐inspired concise synthesis of chiral spirooxindole‐pyranopyrimidines with broad‐spectrum anticancer potency . Adv Synth Catal 2012; 354 : 917 – 25 .; details: read-out: IC50, cytotoxicity against MDA cell lines; cited from earlier work
[4] = system: MDA-MB-231 cancer cell line; details: TNBC; read-out: IC50, cytotoxic activity MDA-MB-231; cited from earlier work
MCF-7 = system: MCF-7; set-up: method as in PMID 24747063; details: ordinary breast cancer; read-out: IC50, cytotoxic activity MCF-7; cited from earlier work

For N#CC1=C(c2ccccc2)Nc2c(c(-c3cccs3)nn2-c2ccccc2)C12C(=O)Nc1ccc(Cl)cc12 (centres unmarked) [Compound 6e, 5-Chloro-2-oxo-1',6'-diphenyl-3'-(thiophen-2-yl)-1',7'-dihydrospiro[indoline-3,4'-pyrazolo[3,4-b]pyridine]-5'-carbonitrile], the IC50 (MDA-MB-231 cells [1]) was 6.4 µM, the IC50 (WI-38 cells) was 43.2 µM and the “Caspase-3” value (caspase-3) was 0.4058 ng/mL. For the same molecule, the “Caspase-3, number of folds of control” value (caspase-3) was ~36.5 folds, the “Bax” value (Bax) was 353.7 pg/mL and the “Bax, number of folds of control” value (Bax) was 442.1 folds. The “Bcl-2” value (Bcl-2) was 0.7449 ng/mL, the “Bcl-2, number of folds of control” value (Bcl-2) was 0.276 folds and the “Annexin V-FITC positive apoptotic cells, folds compared to control” value (MDA-MB-231 cells [2]) was “about 32.8 folds”. For the same molecule, the “Percent of annexin V-FITC positive apoptotic cells (UR + LR)” value (MDA-MB-231 cells [2]; control 1.34%) was 44%, the IC50 (EGFR) was 0.15 ± 0.02 µM and the “Cells in G2-M phase” value (MDA-MB-231 cells [3]) was 19.1%. For the same molecule, the “Change in the S phase” value (MDA-MB-231 cells [3]) was “no significant change”.

For CC(C)=CC1N2C(=O)C3CCCN3C(=O)C2=CC12C(=O)Nc1ccccc12 (centres unmarked) [Spirotryprostatins B], the IC50 (tsFT210 cells) is given as 14 µM.

In the case of CC(=O)n1c(C)nc2c(c1=O)[C@@]1(C(=O)Nc3c(F)cccc31)c1c(c3cc(F)ccc3oc1=O)O2 [derivative (ii)], the IC50 (MDA cell lines) is given as 6.9 µM.

For CC(C)(C)C1=NN(c2ccccc2)C2(C(=O)Nc3c(Cl)cccc32)C1c1ccccc1 (centres unmarked) [compound (iii)], the IC50 [4] is listed as 6.4 µM and the IC50 (MCF-7) is listed as 8.6 µM.
